Assays:
α2A-adrenoceptors = target: T1, α2A-adrenoceptors (Homo sapiens, UniProt P08913); assay: inhibition of tritiated RX 821002 binding to α2A-adrenoceptors in human cerebral cortex; conditions: for inhibition at 1 µM: at 10^-6 M, tritiated RX 821002, read-out: % displacement of radio ligand, α2A
T1 construct: Human cerebral cortex obtained at post-mortem; from tissue; host or cells: human post-mortem cerebral cortex membranes
T1 sequence (P08913 1-465): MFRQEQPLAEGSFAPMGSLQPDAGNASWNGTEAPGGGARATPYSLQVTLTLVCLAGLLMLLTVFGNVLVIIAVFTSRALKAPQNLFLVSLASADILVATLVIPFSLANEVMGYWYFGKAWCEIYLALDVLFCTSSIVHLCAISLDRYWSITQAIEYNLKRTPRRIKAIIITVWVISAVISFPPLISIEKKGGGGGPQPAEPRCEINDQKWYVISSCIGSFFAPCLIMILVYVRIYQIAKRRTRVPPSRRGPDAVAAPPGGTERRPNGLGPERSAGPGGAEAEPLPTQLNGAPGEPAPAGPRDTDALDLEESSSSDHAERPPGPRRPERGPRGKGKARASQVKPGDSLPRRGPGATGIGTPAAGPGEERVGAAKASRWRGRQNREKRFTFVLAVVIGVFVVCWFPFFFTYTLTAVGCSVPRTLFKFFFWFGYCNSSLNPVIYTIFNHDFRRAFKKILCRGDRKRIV
Procedure: Human cerebral cortex obtained at post-mortem was homogenised in ice-cold 0.25M sucrose (1:30 w/v) and centrifuged at 1,000 g at 4° C. for 12 minutes. The supernatant was stored on ice and the pellet was rehomogenised in 0.25M sucrose (1:15 w/v) and centrifuged at 850 g at 4° C. for 12 minutes. Combined supernatants were diluted with 5mM Tris-HCl (pH 7.5) containing 5 mM ethylenediamine tetraacetic acid (EDTA), readjusted to pH 7.5 (at 25° C.) with 1M sodium hydroxide to 1:80 w/v, and centrifuged at 11,000 g at 4° C. for 10 minutes. The resulting pellet was resuspended in 50 mM Tris-HCl (pH 7.5) containing 5.68 mM L-ascorbic acid and 0.5 mM EDTA, readjusted to pH 7.5 (at 25° C.) with 1 M sodium hydroxide to 1:80 w/v, and centrifuged at 11,000 g for 10 minutes. The pellet was stored at -80° C. On the day of the assay the pellet was thawed, resuspended in 50 mM Tris-HCl (pH 7.5) containing 5.68 mM L-ascorbic acid and 5 mM EDTA to 1:80 w/v and centrifuged at 11,000 g for 10 minutes. The final pellet was resuspended in 50 mM Tris-HCl (pH 7.5) containing 5.68 mM L-ascorbic acid and 5 mM EDTA (equivalent to 25 mg wet weight of tissue/ml).
Aliquots (400 μl; equivalent to 10 mg wet weight of tissue/tube) of this suspension were added to tubes containing the ligand (50 μl; 0.2 nM) and distilled water (50 μl; total binding) or phentolamine (50 μl; 50 μM; non-specific binding) or test compound (50 μl; at a single concentration of 10^-6 M or at 10 concentrations ranging from 10^-11 -10^-3 M). The ligand was tritiated RX 821002 (2-(2-methoxy-1,4-[6,7(n)-^3 H]benzodioxan-2-yl)-2-imidazoline) and the mixture was incubated at 0° C. for 75 minutes before the incubation was terminated by rapid filtration.
The filters were washed with ice-cold Tris-HCl buffer and dried. The filters were punched out into vials, scintillation fluid added and radioactivity determined by liquid scintillation counting. The percentage displacement of specific binding of the tritiated ligand was calculated for the single concentration (10^-6 M) of test compound. Displacement curves were then produced for those compounds which displaced ≥50% of specific binding of the tritiated ligand at 10^-6 M using a range of concentrations of the compound. The concentration which gave 50% inhibition of specific binding (IC50)was obtained from the curve. The inhibition coefficient Ki was then calculated using the formula [formula] in which [ligand] is the concentration of the tritiated ligand used and KD is the equilibrium dissociation constant for the ligand.

D2 dopamine receptors = target: T2, D2 dopamine receptors (Rattus norvegicus, UniProt P61169); assay: inhibition of tritiated (S)-sulpiride binding to D2 dopamine receptors in rat striatal tissue; conditions: rat striatum; for Ki: tritiated (S)-sulpiride 1 nM, 4° C., 40 min; for inhibition at 1 µM: at 10^-6 M, tritiated (S)-sulpiride, read-out: % displacement of radio ligand, D2
T2 construct: Striatal tissue from the brains of male Charles River CD rats; from tissue; host or cells: rat striatum membranes
Procedure: Striatal tissue from the brains of male Charles River CD rats weighing between 140-250 g were homogenised in ice-cold 50 mM Tris-HCl buffer (pH 7.7 when measured at 25° C.) and centrifuged at 40,000 g for 10 minutes. The pellet was resuspended in Tris salts buffer (50 mM Tris-HCl buffer containing 120 mM NaCl, 5 mM KCl, 2 mM CaCl2 and 1 mM MgCl2 with the addition of 6 mM ascorbic acid; pH 7.7 when measured at 25° C.), and again centrifuged at 40,000 g for 10 minutes. The final pellet was stored at -80° C. Before each test the pellet was resuspended in Tris salts buffer (equivalent to 2 mg wet weight of tissue/ml). Aliquots (720 μl; equivalent to 1.44 mg wet weight of tissue/tube) of this suspension were then added to tubes containing the ligand (40 μl; 1 nM) and Tris salts buffer (40 μl; total binding) or spiroperidol (40 μl; 10 nM; non-specific binding) or test compound (40 μl; at a single concentration of 10^-6 M or at 6 concentrations ranging from 10^-11 -10^-4 M). The ligand was tritiated (S)-sulpiride and the mixture was incubated at 4° C. for 40 minutes before the incubation was terminated by rapid filtration.
The filters were washed with ice-cold Tris-HCl buffer and dried. The filters were punched out in to vials, scintillation fluid added and were left for about 20 hours before being counted by scintillation spectrophotometry. The percentage displacement of specific binding of the tritiated ligand was calculated for the single concentration (10^-6 M) of test compound. Displacement curves were then produced over a range of concentrations for those compounds which displaced ≥50% of specific binding of the tritiated ligand at 10^-6 M. The concentration which gave a 50% inhibition of specific binding (IC50) was obtained from the curve. The inhibition coefficient Ki was then calculated using the formula [formula] in [ligand] is the concentration of the tritiated ligand used and KD is the 2 equilibrium dissociation constant for the ligand.

T2 sequence (P61169 whole entry): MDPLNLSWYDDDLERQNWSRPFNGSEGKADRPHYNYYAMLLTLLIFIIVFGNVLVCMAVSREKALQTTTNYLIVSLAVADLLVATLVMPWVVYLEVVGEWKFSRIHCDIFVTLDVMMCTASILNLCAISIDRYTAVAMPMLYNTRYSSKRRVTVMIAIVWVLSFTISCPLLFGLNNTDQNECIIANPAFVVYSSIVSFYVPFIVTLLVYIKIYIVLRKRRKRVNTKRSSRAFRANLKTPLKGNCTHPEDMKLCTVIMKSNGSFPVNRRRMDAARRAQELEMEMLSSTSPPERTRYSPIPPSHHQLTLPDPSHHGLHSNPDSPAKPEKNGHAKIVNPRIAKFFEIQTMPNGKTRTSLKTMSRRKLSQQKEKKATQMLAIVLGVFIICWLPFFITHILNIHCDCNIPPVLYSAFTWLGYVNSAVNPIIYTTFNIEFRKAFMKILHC

| SMILES | inhibition at 1 µM (α2A-adrenoceptors) | Ki (D2 dopamine receptors) | inhibition at 1 µM (D2 dopamine receptors) | Ki (α2A-adrenoceptors; tritiated RX 821002 0.2 nM, 0° C., 75 min) |
| --- | --- | --- | --- | --- |
| O=C(NCC1CCN(CC2COc3ccccc3O2)CC1)c1cccc2cccnc12 (stereo not drawn) [Example 8, N-{[1-(1,4-benzodioxan-2-ylmethyl)-4-piperidyl]methyl}quinoline-8-carboxamide] | 99% | 95 nM | – | – |
| Cc1ncccc1C(=O)NCC1CCN(C[C@H]2COc3cccc(Cl)c3O2)CC1 [Example 9, (S)-N-{[1-(8-chloro-1,4-benzodioxan-2-ylmethyl)-4-piperidyl]methyl}-2-methylpyridine-3-carboxamide] | 99% | 37 nM | – | – |
| Nc1ncccc1C(=O)NCC1CCN(CC2COc3ccccc3O2)CC1 (stereo not drawn) [Example 4, 2-amino-N-{[1-(1,4-benzodioxan-2-ylmethyl)-4-piperidyl]methyl}pyridine-3-carboxamide] | – | – | 84% | – |
| Cc1ccc2c(c1)O[C@@H](CN1CCC(CNC(=O)c3cccnc3N)CC1)CO2 [Example 5, (S)-2-amino-N-{[1-(7-methyl-1,4-benzodioxan-2-ylmethyl)-4-piperidyl]methyl}pyridine-3-carboxamide] | 98% | 55.6 nM | – | – |
| COc1ccc2c(c1)O[C@@H](CN1CCC(CNC(=O)c3cccnc3N)CC1)CO2 [Example 7, (S)-2-amino-N{[1-(7-methoxy-1,4-benzodioxan-2-ylmethyl)-4-piperidyl]methyl}-pyridine-3-carboxamide] | – | 197 nM | – | 2.8 nM |
| O=C(NCC1CCN(CC2COc3ccccc3O2)CC1)c1ccccn1 (stereo not drawn) [Example 6, N-{[1-(1,4-benzodioxan-2-ylmethyl)-4-piperidyl]methyl}pyridine-2-carboxamide] | 100% | 67 nM | – | – |
| Nc1ncccc1C(=O)NCC1CCN(C[C@H]2COc3cccc(Cl)c3O2)CC1 [Example 2, (S)-2-amino-N-{[1-(8-chloro-1,4-benzodioxan-2-ylmethyl)-4-piperidyl]methyl}-pyridine-3-carboxamide] | – | – | 104% | – |
| Nc1ncccc1C(=O)NCC1CCN(C[C@H]2COc3cccc(F)c3O2)CC1 [Example 3, (S)-(-)-2-amino-N-{[1-(8-fluoro-1,4-benzodioxan-2-ylmethyl)-4-piperidyl]methyl}pyridine-3-carboxamide] | – | 32.9 nM | – | – |
| Nc1ncccc1C(=O)NCC1CCN(C[C@H]2COc3ccc(Cl)cc3O2)CC1 [Example 1, (S)-(-)-2-amino-N-{[1-(7-chloro-1,4-benzodioxan-2-ylmethyl)-4-piperidyl]methyl}pyridine-3-carboxamide] | – | 32.2 nM | – | – |
| Nc1ncccc1C(=O)NCC1CCN(CC2COc3ccc(F)cc3O2)CC1 (stereo not drawn) [Example 10, 2-amino-N-{[1-(7-fluoro-1,4-benzodioxan-2-ylmethyl)-4-piperidyl]methyl}pyridine-3-carboxamide] | 100% | 109 nM | – | – |

The remaining lines, values ahead:

| inhibition at 1 µM (α2A-adrenoceptors) | Ki (D2 dopamine receptors) | inhibition at 1 µM (D2 dopamine receptors) | Ki (α2A-adrenoceptors; tritiated RX 821002 0.2 nM, 0° C., 75 min) | SMILES |
| --- | --- | --- | --- | --- |
| 100% | 68 nM | – | – | Nc1ccsc1C(=O)NCC1CCN(CC2COc3ccccc3O2)CC1 (stereo not drawn) [Example 16, 3-amino-N-{[1-(1,4-benzodioxan-2-ylmethyl)-4-piperidyl]methyl}thiophene-2-carboxamide] |
| 98% | 80 nM | – | – | O=C(NCC1CCN(C[C@H]2COc3ccc(Cl)cc3O2)CC1)c1cccc2cccnc12 [Example 23, (S)-N-{[1-(7-chloro-1,4-benzodioxan-2-ylmethyl)-4-piperidyl]methyl}quinoline-8-carboxamide] |
| 99% | 36 nM | – | – | Nc1ccsc1C(=O)NCC1CCN(C[C@H]2COc3ccc(Cl)cc3O2)CC1 [Example 17, (S)-3-amino-N-{[1-(7-chloro-1,4-benzodioxan-2-ylmethyl)-4-piperidyl]methyl}thiophene-2-carboxamide] |
| 101% | 12 nM | – | – | Nc1ncccc1C(=O)NCC1CCN(C[C@H]2COc3cccc(C(F)(F)F)c3O2)CC1 [Example 20, (S)-2-amino-N-{[1-(8-trifluoromethyl-1,4-benzodioxan-2-ylmethyl)-4-piperidyl]methyl}pyridine-3-carboxamide] |
| 99% | 15 nM | – | – | O=C(NCC1CCN(C[C@H]2COc3ccc(Cl)cc3O2)CC1)c1cccnc1 [Example 22, (S)-N-{[1-(7-chloro-1,4-benzodioxan-2-ylmethyl)-4-piperidyl]methyl}pyridine-3-carboxamide] |
| – | 110 nM | – | – | Cc1ncccc1C(=O)NCC1CCN(C[C@H]2COc3ccc(Cl)cc3O2)CC1 [Example 18, (S)-N-{[1-(7-chloro-1,4-benzodioxan-2-ylmethyl)-4-piperidyl]methyl}-2-methylpyridine-3-carboxamide] |
| 99% | 21 nM | – | – | O=C(NCC1CCN(C[C@H]2COc3ccc(Cl)cc3O2)CC1)c1ccccn1 [Example 12, (S)-N-{[1-(7-chloro-1,4-benzodioxan-2-ylmethyl)-4-piperidyl]methyl}pyridine-2-carboxamide] |
| 99% | 41 nM | – | – | COc1cccc2c1OC(CN1CCC(CNC(=O)c3cccnc3N)CC1)CO2 (stereo not drawn) [Example 11, 2-amino-N-{[1-(8-methoxy-1,4-benzodioxan-2-ylmethyl)-4-piperidyl]methyl}pyridine-3-carboxamide] |
| 100% | 64.6 nM | – | – | Nc1ncccc1C(=O)NCC1CCN(C[C@H]2COc3ccccc3O2)CC1 [Example 15, (S)-2-amino-N-{[1-(1,4-benzodioxan-2-ylmethyl)-4-piperidyl]methyl}pyridine-3-carboxamide] |
| 100% | 33 nM | – | – | Cc1cccc2c1O[C@@H](CN1CCC(CNC(=O)c3cccnc3N)CC1)CO2 [Example 13, (S)-2-amino-N-{[1-(8-methyl-1,4-benzodioxan-2-ylmethyl)-4-piperidyl]methyl}pyridine-3-carboxamide] |
| – | 43.9 nM | – | – | Cc1ccc(C(=O)NCC2CCN(C[C@H]3COc4ccc(Cl)cc4O3)CC2)c(N)n1 [Example 14, (S)-2-amino-N-{[1-(7-chloro-1,4-benzodioxan-2-ylmethyl)-4-piperidyl]methyl}-6-methylpyridine-3-carboxamide] |
